Experimental data reported in patent US4110165A, “Process for the production of clavulanic acid” (Beecham Group Limited, priority 1974, dated 1978).
Values after ≈ are worked out from the molar mass of the structure shown. Counter-ions that a name gives are not always drawn.

Tests used:
Klebsiella aerogenes A [1] = assay: Antibacterial synergism MIC, microtiter method (Example 42); format: cell-based; details: unit not given; method of Example 42
[2] = tested on: Klebsiella aerogenes E 70; assay: as above; format: cell-based; details: unit not given; method of Example 42
Klebsiella aerogenes 62 = assay: as above; format: cell-based; details: unit not given; method of Example 42
[3] = tested on: Staphylococcus aureus (Russell); assay: M.I.C. synergism with clavulanic acid methyl ester (Example 32); format: cell-based
Proteus mirabilis C889 = assay: as above; format: cell-based
Klebsiella aerogenes A [4] = assay: Growth inhibition, penicillins with and without synergist; format: cell-based
Staphylococcus aureus = assay: Antibacterial synergism MIC, microtiter method (Example 42); format: cell-based; details: method of Example 42
Bacillus subtilis A = assay: MIC, method of Example 30 with 1/100 dilution of overnight broth (Example 46)
Procedure: (§1) The cultures were incubated overnight and the points of bacterial growth recorded next morning by observing the turbidity of the culture.

Staph. aureus Oxford = assay: as above; details: Staphylococcus aureus
Procedure: as §1

Staph. aureus Russell = assay: as above; details: Staphylococcus aureus
Procedure: as §1

Escherichia coli 10418 = assay: as above
Procedure: as §1

bacteria = assay: Tests for antibacterial activity in broth (Example 32); format: cell-based
[5] = Blood and tissue levels in female mice; format: in vivo; details: oral administration of 100 mg/kg
Stability in human blood = format: in vitro ADME

## CC1(C)S[C@@H]2[C@H](NC(=O)[C@H](N)c3ccccc3)C(=O)N2[C@H]1C(=O)O [Ampicillin, ampicillin]
Klebsiella aerogenes A [1]
  M.I.C., Ampicillin + 5 μg/ml of Benzyl Ester of clavulanic acid: 1.9
  M.I.C., Ampicillin + 5 μg/ml of Methyl Ester of clavulanic acid: 1.9
[2]
  M.I.C., Ampicillin + 5 μg/ml of Benzyl Ester of clavulanic acid: 3.9
  M.I.C., Ampicillin + 5 μg/ml of Methyl Ester of clavulanic acid: 3.9
Klebsiella aerogenes 62
  M.I.C., Ampicillin + 5 μg/ml of Benzyl Ester of clavulanic acid: 3.9
  M.I.C., Ampicillin + 5 μg/ml of Methyl Ester of clavulanic acid: 3.9
[3]
  M.I.C. in the presence of 1.0 μg/ml. clavulanic acid methyl ester: < 0.4 µg/mL
Proteus mirabilis C889
  M.I.C. in the presence of 5 μg/ml. clavulanic acid methyl ester: 31 µg/mL

## CC1(C)S[C@@H]2[C@H](NC(=O)Cc3ccccc3)C(=O)N2[C@H]1C(=O)O [Benzylpenicillin, benzylpenicillin]
Klebsiella aerogenes A [4]
  concentration inhibiting growth when 5 μg/ml. of clavulanic acid is also present: less than 12.5 μg/ml.

## O=C(Cc1cccs1)N[C@@H]1C(=O)N2C(C(=O)[O-])=C(C[n+]3ccccc3)CS[C@H]12 [Cephaloridine, cephaloridine]
Staphylococcus aureus
  Minimum Inhibitory Concentration in presence of 5μg/ml clavulanic acid sodium salt: 3.7 µg/mL
[3]
  M.I.C. in the presence of 1.0 μg/ml. clavulanic acid methyl ester: < 0.03 µg/mL

## O=C1OC(OC(=O)[C@H]2/C(=C/CO)O[C@@H]3CC(=O)N32)c2ccccc21 (some centres unmarked) [Phthalidyl ester, Clavulanic Acid Phthalide Esters]
Bacillus subtilis A
  MIC: 125 µg/mL (≈ 377 µM)
Staph. aureus Oxford
  MIC: 31 µg/mL (≈ 93.6 µM)
Staph. aureus Russell
  MIC: 15 µg/mL (≈ 45.3 µM)
Escherichia coli 10418
  MIC: 125 µg/mL (≈ 377 µM)

## O=C(OCc1ccccc1)[C@H]1/C(=C/CO)O[C@@H]2CC(=O)N21 [clavulanic acid benzyl ester, benzyl ester of 3-(β-hydroxyethylidine)-7-oxo-4-oxa-1-azabicyclo [3,2,0]heptane-2-carboxylic acid]
Escherichia coli 10418
  MIC: 125 µg/mL (≈ 432 µM)

## COC(=O)[C@H]1/C(=C/CO)O[C@@H]2CC(=O)N21 [clavulanic acid methyl ester]
bacteria
  antibacterial activity in broth: broad spectrum activity but of a lower order than shown by clavulanic acid

## O=C(O)[C@H]1/C(=C/CO)O[C@@H]2CC(=O)N21 [clavulanic acid sodium salt, 3-(β-hydroxyethylidine)-7-oxo-4-oxa-1-azabicyclo [3,2,0]heptane-2-carboxylic acid sodium salt]
[5]
  levels of clavulanic acid after oral administration: useful levels
Escherichia coli 10418
  MIC: 125 µg/mL

## O=C(O)[C@H]1/C(=C/CO)O[C@@H]2CC(=O)N21 [clavulanic acid, Z-(2R,5R)-3-(β-hydroxyethylidene)-7-oxo-4-oxa-1-azabicyclo[3,2,0]heptane-2-carboxylic acid]
Stability in human blood
  stability in human blood: high stability
